Source: the NIST ThermoML archive (doi:10.1016/j.jct.2013.09.043)
± gives the expanded uncertainty stated by the source.

Assay: xn = mol fraction of the nth substance listed
Conditions: 101 kPa, Liquid; for viscosity: Capillary tube (Ostwald / Ubbelohde) method; for mass density: Vibrating tube method

Structure (SMILES): CCCCCC(C)O (stereo not drawn) [2-heptanol] + NC=O
- viscosity (298.15 K, x2 = 0): 5.296 ± 0.21 mPa·s
- viscosity (298.15 K, x2 = 0.0819): 5.094 ± 0.21 mPa·s
- viscosity (298.15 K, x2 = 0.1603): 4.915 ± 0.2 mPa·s
- viscosity (298.15 K, x2 = 0.2402): 4.744 ± 0.19 mPa·s
- viscosity (298.15 K, x2 = 0.3508): 4.541 ± 0.18 mPa·s
- viscosity (298.15 K, x2 = 0.4402): 4.385 ± 0.18 mPa·s
- viscosity (298.15 K, x2 = 0.567): 4.176 ± 0.17 mPa·s
- viscosity (298.15 K, x2 = 0.6525): 4.035 ± 0.16 mPa·s
- viscosity (298.15 K, x2 = 0.7403): 3.881 ± 0.16 mPa·s
- viscosity (298.15 K, x2 = 0.8501): 3.647 ± 0.15 mPa·s
- viscosity (298.15 K, x2 = 0.94): 3.446 ± 0.14 mPa·s
- mass density (298.15 K, x2 = 0): 813.38 ± 1 kg/m3
- mass density (298.15 K, x2 = 0.0819): 821.08 ± 1 kg/m3
- mass density (298.15 K, x2 = 0.1603): 829.46 ± 1 kg/m3
- mass density (298.15 K, x2 = 0.2402): 839.28 ± 1 kg/m3
- mass density (298.15 K, x2 = 0.3508): 855.44 ± 1 kg/m3
- mass density (298.15 K, x2 = 0.4402): 871.35 ± 1 kg/m3
- mass density (298.15 K, x2 = 0.567): 900.02 ± 1 kg/m3
- mass density (298.15 K, x2 = 0.6525): 924.85 ± 1 kg/m3
- mass density (298.15 K, x2 = 0.7403): 957.01 ± 1 kg/m3
- mass density (298.15 K, x2 = 0.8501): 1010.97 ± 1 kg/m3
- mass density (298.15 K, x2 = 0.94): 1072.96 ± 1 kg/m3
- viscosity (303.15 K, x2 = 0): 4.315 ± 0.17 mPa·s
- viscosity (303.15 K, x2 = 0.0819): 4.157 ± 0.17 mPa·s
- viscosity (303.15 K, x2 = 0.1603): 4.021 ± 0.16 mPa·s
- viscosity (303.15 K, x2 = 0.2402): 3.905 ± 0.16 mPa·s
- viscosity (303.15 K, x2 = 0.3508): 3.773 ± 0.15 mPa·s
- viscosity (303.15 K, x2 = 0.4402): 3.673 ± 0.15 mPa·s
- viscosity (303.15 K, x2 = 0.567): 3.543 ± 0.14 mPa·s
- viscosity (303.15 K, x2 = 0.6525): 3.459 ± 0.14 mPa·s
- viscosity (303.15 K, x2 = 0.7403): 3.363 ± 0.14 mPa·s
- viscosity (303.15 K, x2 = 0.8501): 3.204 ± 0.13 mPa·s
- viscosity (303.15 K, x2 = 0.94): 3.069 ± 0.12 mPa·s
- mass density (303.15 K, x2 = 0): 809.5 ± 1 kg/m3
- mass density (303.15 K, x2 = 0.0819): 817.04 ± 1 kg/m3
- mass density (303.15 K, x2 = 0.1603): 825.3 ± 1 kg/m3
- mass density (303.15 K, x2 = 0.2402): 835.08 ± 1 kg/m3
- mass density (303.15 K, x2 = 0.3508): 851.28 ± 1 kg/m3
- mass density (303.15 K, x2 = 0.4402): 867.27 ± 1 kg/m3
- mass density (303.15 K, x2 = 0.567): 895.95 ± 1 kg/m3
- mass density (303.15 K, x2 = 0.6525): 920.66 ± 1 kg/m3
- mass density (303.15 K, x2 = 0.7403): 952.58 ± 1 kg/m3
- mass density (303.15 K, x2 = 0.8501): 1006.37 ± 1 kg/m3
- mass density (303.15 K, x2 = 0.94): 1068.47 ± 1 kg/m3
- viscosity (308.15 K, x2 = 0): 3.535 ± 0.14 mPa·s
- viscosity (308.15 K, x2 = 0.0819): 3.403 ± 0.14 mPa·s
- viscosity (308.15 K, x2 = 0.1603): 3.299 ± 0.13 mPa·s
- viscosity (308.15 K, x2 = 0.2402): 3.219 ± 0.13 mPa·s
- viscosity (308.15 K, x2 = 0.3508): 3.131 ± 0.13 mPa·s
- viscosity (308.15 K, x2 = 0.4402): 3.07 ± 0.12 mPa·s
- viscosity (308.15 K, x2 = 0.567): 2.997 ± 0.12 mPa·s
- viscosity (308.15 K, x2 = 0.6525): 2.952 ± 0.12 mPa·s
- viscosity (308.15 K, x2 = 0.7403): 2.896 ± 0.12 mPa·s
- viscosity (308.15 K, x2 = 0.8501): 2.792 ± 0.11 mPa·s
- viscosity (308.15 K, x2 = 0.94): 2.701 ± 0.11 mPa·s
- mass density (308.15 K, x2 = 0): 805.72 ± 1 kg/m3
- mass density (308.15 K, x2 = 0.0819): 813.18 ± 1 kg/m3
- mass density (308.15 K, x2 = 0.1603): 821.41 ± 1 kg/m3
- mass density (308.15 K, x2 = 0.2402): 831.16 ± 1 kg/m3
- mass density (308.15 K, x2 = 0.3508): 847.38 ± 1 kg/m3
- mass density (308.15 K, x2 = 0.4402): 863.34 ± 1 kg/m3
- mass density (308.15 K, x2 = 0.567): 891.92 ± 1 kg/m3
- mass density (308.15 K, x2 = 0.6525): 916.51 ± 1 kg/m3
- mass density (308.15 K, x2 = 0.7403): 948.4 ± 1 kg/m3
- mass density (308.15 K, x2 = 0.8501): 1002.12 ± 1 kg/m3
- mass density (308.15 K, x2 = 0.94): 1064.24 ± 1 kg/m3
- viscosity (313.15 K, x2 = 0): 2.96 ± 0.12 mPa·s
- viscosity (313.15 K, x2 = 0.0819): 2.842 ± 0.12 mPa·s
- viscosity (313.15 K, x2 = 0.1603): 2.767 ± 0.11 mPa·s
- viscosity (313.15 K, x2 = 0.2402): 2.718 ± 0.11 mPa·s
- viscosity (313.15 K, x2 = 0.3508): 2.669 ± 0.11 mPa·s
- viscosity (313.15 K, x2 = 0.4402): 2.637 ± 0.11 mPa·s
- viscosity (313.15 K, x2 = 0.567): 2.607 ± 0.11 mPa·s
- viscosity (313.15 K, x2 = 0.6525): 2.593 ± 0.11 mPa·s
- viscosity (313.15 K, x2 = 0.7403): 2.571 ± 0.1 mPa·s
- viscosity (313.15 K, x2 = 0.8501): 2.51 ± 0.1 mPa·s
- viscosity (313.15 K, x2 = 0.94): 2.455 ± 0.099 mPa·s
- mass density (313.15 K, x2 = 0): 801.46 ± 1 kg/m3
- mass density (313.15 K, x2 = 0.0819): 808.95 ± 1 kg/m3
- mass density (313.15 K, x2 = 0.1603): 817.16 ± 1 kg/m3
- mass density (313.15 K, x2 = 0.2402): 826.89 ± 1 kg/m3
- mass density (313.15 K, x2 = 0.3508): 843.03 ± 1 kg/m3
- mass density (313.15 K, x2 = 0.4402): 858.97 ± 1 kg/m3
- mass density (313.15 K, x2 = 0.567): 887.52 ± 1 kg/m3
- mass density (313.15 K, x2 = 0.6525): 912.11 ± 1 kg/m3
- mass density (313.15 K, x2 = 0.7403): 944.03 ± 1 kg/m3
- mass density (313.15 K, x2 = 0.8501): 997.89 ± 1 kg/m3
- mass density (313.15 K, x2 = 0.94): 1059.95 ± 1 kg/m3
